# Several values for one entry are separate records, joined by “and”; a condition that tells them apart may be missing. Identical values can stand only once.
# Assays:
# Botrytis cinerea = Botrytis cinerea disease score (0-5) on inoculated hemp plants (Example 7); type: in vivo; conditions: at harvest, 8 replicates
# Protocol: A Botrytis cinerea isolate was cultured onto potato-dextrose agar (PDA) and re-isolated by taking a mycelial plug from the edge of actively growing cultures every 2-3 weeks to maintain active growing culture. It was maintained at 20° C. under continuous light (˜[…] m^−2 s^−1). An inoculum was prepared by flooding a full grown B. cinerea PDA plate with DI water and 0.1% Tween-20 to create a suspension of fungal spores. Spore count was quantified.
# In the first inoculation, a suspension of 1.2×10^4 spores of B. cinerea/mL was created, and 1.5 mL was applied to the top cola/underdeveloped inflorescence of each hemp plant in the first week of flowering. In the second inoculation, a suspension of 1.5×10^5 spores of B. cinerea/mL was created, and sucrose was added to 1% concentration, and the plants were sprayed until drip using a backpack sprayer.
# Inoculated plants were placed in a controlled growth environment with a constant temperature of 20-25° C. and 50-70% relative humidity. (See Zhang et al., “Infection Assays of Tomato and Apple Fruit by the Fungal Pathogen Botrytis cinerea,” bio-protocol 2014; 4 (23): 1-4. See also, Bulger et al. Phytopathology 1987; 77 (8): 1225-1230 and Garfinkel, Plant Disease 2020; 104 (7): 2026.)
# Treatments comprising 1 mM or 5 mM jasmonate (MDJ) were applied alone or alongside a biological (Continuum™). […]
# [1] = system: Grapevine (Malbec variety); experiment: Leaf sap Brix by refractometer, Malbec field trial (Example 1); type: in vivo, Vitis vinifera; design: % BRIX, Plant #1 / % BRIX, Plant #2 / % BRIX, Plant #3: reference not given here; conditions: for Brix, individual leaf: leaf no. 1-25, one line per leaf; for AVG Brix, Plant #1 / AVG Brix, Plant #2 / AVG Brix, Plant #3: average of 25 leaves; for Brix, individual leaves, Plant #1 / Brix, individual leaves, Plant #2 / Brix, individual leaves, Plant #3: leaf sap; for Brix, individual leaves, Plant #1: MDJ treated Plant #1, leaf no. 1-25; for Brix, individual leaves, Plant #2: MDJ treated Plant #2, leaf no. 1-25; for Brix, individual leaves, Plant #3: MDJ treated Plant #3, leaf no. 1-25
# Protocol: An eliciting composition and methods of use to alter metabolite production were tested on 6 acres of a Malbec variety planted in 1999 in Napa Valley, California. Plants were spaced 5′×10′ (900 vines per acre) and grouped into randomized blocks of 900 vines per group, with six replicates covering three acres for the treatment group, and six replicates covering three acres for the control group. The treatment group received two applications of 32 oz of MDJ applied at a rate of 100 gallons per acre (2.5 mM), once prior to veraison on Aug. 9, 2021 and again when 5-10% of berries were starting to blush (veraison) using a ground spray rig (backpack sprayer). From within each replicate, three plants were selected at random, and 25 leaves from each plant were randomly selected for analysis. The internal sap of the leaves was tested using a refractometer on the days shown below in Table 4 and FIG. 1. Data from each replicate was averaged (25 leaves from each plant, 3 plants).
# [2] = Malbec, 2.5 mM MDJ, average of all replicate groups sampled
# [3] = Replicate 1 sampled on Aug. 15, 2021, MDJ treated Plant #1
# [4] = Replicate 1 sampled on Aug. 15, 2021, MDJ treated Plant #2
# [5] = Replicate 1 sampled on Aug. 15, 2021, MDJ treated Plant #3
# [6] = Replicate 2 sampled on Sep. 22, 2021, MDJ treated Plant #1
# [7] = Replicate 2 sampled on Sep. 22, 2021, MDJ treated Plant #2
# [8] = Replicate 2 sampled on Sep. 22, 2021, MDJ treated Plant #3
# [9] = Replicate 3 sampled on Sep. 30, 2021, MDJ treated Plant #1
# [10] = Replicate 3 sampled on Sep. 30, 2021, MDJ treated Plant #2
# [11] = Replicate 3 sampled on Sep. 30, 2021, MDJ treated Plant #3
# [12] = Replicate 4, Oct. 5, 2021, MDJ treated Plant #1
# [13] = Replicate 4, Oct. 5, 2021, MDJ treated Plant #2
# [14] = Replicate 4, Oct. 5, 2021, MDJ treated Plant #3
# [15] = Replicate 5, Oct. 10, 2021, MDJ treated Plant #1
# [16] = Replicate 5, Oct. 10, 2021, MDJ treated Plant #2
# [17] = Replicate 5, Oct. 10, 2021, MDJ treated Plant #3
# [18] = Replicate 6, Oct. 30, 2021, MDJ treated Plant #1
# [19] = Replicate 6, Oct. 30, 2021, MDJ treated Plant #2
# [20] = Replicate 6, Oct. 30, 2021, MDJ treated Plant #3
# [21] = Replicate 4 sampled on Oct. 5, 2021
# [22] = Replicate 5 sampled on Oct. 10, 2021
# [23] = Replicate 6 sampled on Oct. 30, 2021
compound,measurement,setting,value
"CCCCCC1C(=O)CCC1CC(=O)OC (stereo not shown) [MDJ, methyl dihydrojasmonate]",Average Disease Score (0-5),"Botrytis cinerea; condition B, 1 mM MDJ foliar spray",2.625
same,Average Disease Score (0-5),"Botrytis cinerea; condition C, 5 mM MDJ foliar spray",2.250
same,"Brix, individual leaf","[1]; Malbec, 2.5 mM MDJ, Replicate 1 sampled on Aug. 15, 2021, MDJ treated Plant #1",21.0 and 20.0 (2×) and 19.0 (2×) and 19.8 (3×) and 19.5 (3×) and 18.7 (2×) and 19.4 (2×) and 20.5 (2×) and 18.9 (5×) and 18.4 and 19.9 (2×)
same,"Brix, individual leaf","[1]; Malbec, 2.5 mM MDJ, Replicate 1 sampled on Aug. 15, 2021, MDJ treated Plant #2",18.8 and 22.1 and 19.6 and 18.7 and 18.9 (2×) and 19.7 (2×) and 19.0 (2×) and 21.0 (2×) and 20.1 and 19.2 (2×) and 21.1 and 21.8 and 19.1 (2×) and 18.3 and 18.0 and 18.6 and 22.8 and 19.5 and 19.3
same,"Brix, individual leaf","[1]; Malbec, 2.5 mM MDJ, Replicate 1 sampled on Aug. 15, 2021, MDJ treated Plant #3",19.1 and 19.7 (2×) and 19.0 (2×) and 21.0 and 21.8 (2×) and 19.2 (2×) and 20.0 and 19.10 and 19.00 (2×) and 19.30 (2×) and 19.60 and 19.40 (2×) and 18.80 and 18.90 (2×) and 19.6 and 18.3 and 18.9
same,"Brix, individual leaf","[1]; Malbec, 2.5 mM MDJ, Replicate 2 sampled on Sep. 22, 2021, MDJ treated Plant #1",23.9 and 26.3 and 23.4 and 26.8 and 24.3 and 23.1 and 25.0 and 22.9
same,"Brix, individual leaf","[1]; Malbec, 2.5 mM MDJ, Replicate 2 sampled on Sep. 22, 2021, MDJ treated Plant #2",26.5 and 25.5 and 24.8 and 24.9 and 26.7 and 23.8 and 24.0 and 25.0
same,"Brix, individual leaf","[1]; Malbec, 2.5 mM MDJ, Replicate 2 sampled on Sep. 22, 2021, MDJ treated Plant #3",25.00 (2×) and 19.90 (2×) and 22.40 and 23.80 and 19.30 and 24.60 and 24.50
same,"MDJ TREATED averages, BRIX METRIC Juice-SAP",[1]; [2],26.1
same,"Percent increase of Brix, MDJ treated vs control",[1]; [2],44.5%
same,"Percent increase of Brix, MDJ treated vs control","[1]; Malbec, 2.5 mM MDJ, replicate group 2, 22-Sep",59.4%
same,"Percent increase of Brix, MDJ treated vs control","[1]; Malbec, 2.5 mM MDJ, replicate group 3, 30-Sep",93.3%
same,"Percent increase of Brix, MDJ treated vs control","[1]; Malbec, 2.5 mM MDJ, replicate group 4, 5-Oct",46.3%
same,"Percent increase of Brix, MDJ treated vs control","[1]; Malbec, 2.5 mM MDJ, replicate group 5, 10-Oct",25%
same,"Percent increase of Brix, MDJ treated vs control","[1]; Malbec, 2.5 mM MDJ, replicate group 6, 30-Oct",62.5%
same,"MDJ TREATED averages, BRIX METRIC Juice-SAP","[1]; Malbec, two applications of 32 oz MDJ at 100 gal/acre (2.5 mM), replicate group 1, 15-Aug",19.6
same,"MDJ TREATED averages, BRIX METRIC Juice-SAP","[1]; Malbec, two applications of 32 oz MDJ at 100 gal/acre (2.5 mM), replicate group 2, 22-Sep",24.4
same,"MDJ TREATED averages, BRIX METRIC Juice-SAP","[1]; Malbec, two applications of 32 oz MDJ at 100 gal/acre (2.5 mM), replicate group 3, 30-Sep",29.0
same,"MDJ TREATED averages, BRIX METRIC Juice-SAP","[1]; Malbec, two applications of 32 oz MDJ at 100 gal/acre (2.5 mM), replicate group 4, 5-Oct",30.0
same,"MDJ TREATED averages, BRIX METRIC Juice-SAP","[1]; Malbec, two applications of 32 oz MDJ at 100 gal/acre (2.5 mM), replicate group 5, 10-Oct",27.5
same,"MDJ TREATED averages, BRIX METRIC Juice-SAP","[1]; Malbec, two applications of 32 oz MDJ at 100 gal/acre (2.5 mM), replicate group 6, 30-Oct",26.0
same,Plant Brix vs control,"[1]; Malbec, two applications of MDJ (2.5 mM)",increase in plant Brix
same,% BRIX,[1]; [3],77.9%
same,AVG Brix of 25 leaves,[1]; [3],19.5
same,% BRIX,[1]; [4],78.8%
same,AVG Brix of 25 leaves,[1]; [4],19.7
same,% BRIX,[1]; [5],77.9%
same,AVG Brix of 25 leaves,[1]; [5],19.5
same,% BRIX,[1]; [6],99.5%
same,AVG Brix of 25 leaves,[1]; [6],24.9
same,% BRIX,[1]; [7],101.0%
same,AVG Brix of 25 leaves,[1]; [7],25.3
same,% BRIX,[1]; [8],91.8%
same,AVG Brix of 25 leaves,[1]; [8],23.0
same,% BRIX,[1]; [9],111.9%
same,AVG Brix of 25 leaves,[1]; [9],28.0
same,% BRIX,[1]; [10],117.9%
same,AVG Brix of 25 leaves,[1]; [10],29.5
same,% BRIX,[1]; [11],117.9%
same,AVG Brix of 25 leaves,[1]; [11],29.5
same,"% BRIX, Plant #1",[1]; [12],119.5%
same,"% BRIX, Plant #2",[1]; [13],119.2%
same,"% BRIX, Plant #3",[1]; [14],120.8%
same,"% BRIX, Plant #1",[1]; [15],111.4%
same,"% BRIX, Plant #2",[1]; [16],111.4%
same,"% BRIX, Plant #3",[1]; [17],107.3%
same,"% BRIX, Plant #1",[1]; [18],99.2%
same,"% BRIX, Plant #2",[1]; [19],110.1%
same,"% BRIX, Plant #3",[1]; [20],103.2%
same,"AVG Brix, Plant #1",[1]; [12],29.9
same,"AVG Brix, Plant #2",[1]; [13],29.8
same,"AVG Brix, Plant #3",[1]; [14],30.2
same,"AVG Brix, Plant #1",[1]; [15],27.9
same,"AVG Brix, Plant #2",[1]; [16],27.8
same,"AVG Brix, Plant #3",[1]; [17],26.8
same,"AVG Brix, Plant #1",[1]; [18],24.8
same,"AVG Brix, Plant #2",[1]; [19],27.5
same,"AVG Brix, Plant #3",[1]; [20],25.8
same,"Brix, individual leaves, Plant #1","[1]; Replicate 4 sampled on Oct. 5, 2021, two applications of 32 oz MDJ at 100 gal/acre (2.5 mM)",30.6 and 29.8 (2×) and 29.0 and 29.5 (6×) and 32.3 and 28.7 and 28.9 (3×) and 29.7 (2×) and 28.8 and 30.0 and 30.4 and 33.3 and 29.9 (2×) and 31.8 and 29.6
same,"Brix, individual leaves, Plant #2",[1]; [21],29.3 (2×) and 28.0 and 26.9 and 28.5 and 29.9 (2×) and 29.8 (3×) and 30.1 and 28.9 (2×) and 29.4 and 28.3 and 33.3 and 33.0 and 32.9 and 32.5 and 28.8 and 30.4 and 29.5 (2×) and 29.6 and 28.7
same,"Brix, individual leaves, Plant #3",[1]; [21],31.9 and 29.8 (2×) and 29.2 and 29.3 and 29.9 (4×) and 28.5 and 30.4 and 29.5 (2×) and 31.0 and 32.5 and 32.9 and 29.0 and 28.7 and 28.8 and 30.1 and 30.3 and 29.6 and 33.0 and 32.8 and 28.9
same,"Brix, individual leaves, Plant #1",[1]; [22],28.7 and 26.1 and 26.2 and 27.2 and 27.7 and 27.6 (2×) and 26.4 (2×) and 28.2 and 28.8 (3×) and 25.8 and 28.5 and 26.0 and 26.9 and 29.5 (2×) and 27.4 and 32.0 and 23.8 and 29.9 and 30.5 and 28.0
same,"Brix, individual leaves, Plant #2",[1]; [22],28.5 (2×) and 27.5 (2×) and 29.1 and 26.8 and 26.4 and 27.8 and 29.9 and 28.7 (2×) and 29.4 and 28.3 and 29.5 and 28.6 and 25.0 and 27.6 and 25.9 and 29.8 and 28.4 and 28.0 and 26.0 and 26.1 and 27.2 and 27.0
same,"Brix, individual leaves, Plant #3",[1]; [22],26.8 (3×) and 24.5 and 26.3 (2×) and 25.5 (3×) and 25.3 and 28.5 (4×) and 26.7 and 25.8 and 27.0 and 28.7 and 26.9 and 29.8 and 27.5 (2×) and 26.0 and 26.5 and 24.8
same,"Brix, individual leaves, Plant #1",[1]; [23],23.4 and 23.8 (2×) and 24.0 (4×) and 26.0 (2×) and 25.0 (3×) and 25.1 and 26.6 (2×) and 25.6 and 24.5 (2×) and 24.8 (2×) and 24.7 and 23.9 and 22.8 and 25.5 and 26.5
same,"Brix, individual leaves, Plant #2",[1]; [23],28.7 (2×) and 24.5 and 24.1 and 26.0 (2×) and 28.0 (3×) and 27.1 and 26.4 and 29.1 and 25.5 and 28.5 (2×) and 26.9 and 29.8 (2×) and 29.9 and 27.3 (2×) and 24.9 and 26.6 and 29.5 and 29.0
same,"Brix, individual leaves, Plant #3",[1]; [23],25.0 (2×) and 23.1 and 22.9 (2×) and 28.1 and 25.8 and 26.9 and 25.5 and 25.6 (2×) and 26.2 and 23.9 (2×) and 28.8 and 26.3 and 27.2 and 27.3 and 26.1 and 24.6 and 25.7 and 29.9 and 28.4 and 25.4 and 24.9

# Source: patent US20250120399A1, “METHODS AND COMPOSITIONS FOR ALTERING METABOLITES IN VITIS SPP. AND PREVENTING PESTS AND PATHOGENS” (Impello Biosciences, Inc., priority 2022, published 2025)
